{
  "source": "ChEMBL document CHEMBL4387741",
  "about": "“Optimization of novel reversible Bruton's tyrosine kinase inhibitors identified using Tethering-fragment-based screens” (Bioorg Med Chem, 2019)",
  "key": {"[1]": {"target": "Serine/threonine-protein kinase NLK (Homo sapiens) (UniProt Q9UBE8)", "test": "Inhibition of wild-type human full length NLK (M13 to E527 residues) expressed in bacterial expression system at 1 uM by Kinomescan method relative to control"}, "[2]": {"target": "Serine/threonine-protein kinase 3 (Homo sapiens) (UniProt Q13188)", "test": "Inhibition of wild-type human partial length MST2 (D17 to E318 residues) expressed in bacterial expression system at 1 uM by Kinomescan method relative to control"}, "[3]": {"target": "Mitogen-activated protein kinase kinase kinase 20 (Homo sapiens) (UniProt Q9NYL2)", "test": "Inhibition of wild-type human partial length ZAK (M1 to L331 residues) expressed in bacterial expression system at 1 uM by Kinomescan method relative to control"}, "[4]": {"target": "Aurora kinase B (Homo sapiens) (UniProt Q96GD4)", "sequence (Q96GD4 whole entry, the tested form may be a part)": "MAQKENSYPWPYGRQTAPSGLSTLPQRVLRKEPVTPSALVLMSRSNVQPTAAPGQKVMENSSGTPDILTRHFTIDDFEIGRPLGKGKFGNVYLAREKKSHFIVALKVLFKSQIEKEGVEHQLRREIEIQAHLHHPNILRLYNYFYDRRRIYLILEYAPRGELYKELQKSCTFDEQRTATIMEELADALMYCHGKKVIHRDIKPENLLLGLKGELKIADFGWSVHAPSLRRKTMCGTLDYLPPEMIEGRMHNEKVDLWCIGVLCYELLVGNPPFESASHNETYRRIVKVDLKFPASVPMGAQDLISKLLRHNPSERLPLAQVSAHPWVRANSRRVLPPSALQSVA", "test": "Inhibition of wild-type human partial length AURKB (D25 to A303 residues) expressed in mammalian expression system at 1 uM by Kinomescan method relative to control"}, "[5]": {"target": "G protein-coupled receptor kinase 3 (Homo sapiens) (UniProt P35626)", "sequence (P35626 whole entry, the tested form may be a part)": "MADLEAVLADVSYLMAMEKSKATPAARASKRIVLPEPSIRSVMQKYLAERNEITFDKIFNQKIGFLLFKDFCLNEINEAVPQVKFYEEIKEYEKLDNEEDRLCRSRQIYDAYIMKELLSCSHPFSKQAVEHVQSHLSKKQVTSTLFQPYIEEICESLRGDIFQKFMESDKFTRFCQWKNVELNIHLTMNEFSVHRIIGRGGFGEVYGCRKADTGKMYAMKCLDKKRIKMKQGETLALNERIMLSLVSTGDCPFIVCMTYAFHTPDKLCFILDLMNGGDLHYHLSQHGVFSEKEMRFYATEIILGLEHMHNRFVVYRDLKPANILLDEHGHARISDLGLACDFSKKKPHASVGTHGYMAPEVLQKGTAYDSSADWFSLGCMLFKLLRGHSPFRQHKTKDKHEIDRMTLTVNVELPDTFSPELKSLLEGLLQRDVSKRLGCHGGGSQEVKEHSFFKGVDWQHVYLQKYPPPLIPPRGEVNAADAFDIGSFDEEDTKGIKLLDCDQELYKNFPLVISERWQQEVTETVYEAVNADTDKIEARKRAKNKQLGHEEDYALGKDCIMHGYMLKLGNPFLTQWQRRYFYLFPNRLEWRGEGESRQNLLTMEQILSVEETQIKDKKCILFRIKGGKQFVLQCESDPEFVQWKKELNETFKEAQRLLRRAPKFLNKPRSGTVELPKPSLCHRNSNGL", "test": "Inhibition of wild-type human full length GRK3 (M1 to L688 residues) expressed in mammalian expression system at 1 uM by Kinomescan method relative to control"}, "[6]": {"target": "Serine/threonine-protein kinase LATS1 (Homo sapiens) (UniProt O95835)", "test": "Inhibition of wild-type human partial length LATS1 (Q678 to V1130 residues) expressed in bacterial expression system at 1 uM by Kinomescan method relative to control"}, "[7]": {"target": "Ribosomal protein S6 kinase alpha-2 (Homo sapiens) (UniProt Q15349)", "sequence (Q15349 whole entry, the tested form may be a part)": "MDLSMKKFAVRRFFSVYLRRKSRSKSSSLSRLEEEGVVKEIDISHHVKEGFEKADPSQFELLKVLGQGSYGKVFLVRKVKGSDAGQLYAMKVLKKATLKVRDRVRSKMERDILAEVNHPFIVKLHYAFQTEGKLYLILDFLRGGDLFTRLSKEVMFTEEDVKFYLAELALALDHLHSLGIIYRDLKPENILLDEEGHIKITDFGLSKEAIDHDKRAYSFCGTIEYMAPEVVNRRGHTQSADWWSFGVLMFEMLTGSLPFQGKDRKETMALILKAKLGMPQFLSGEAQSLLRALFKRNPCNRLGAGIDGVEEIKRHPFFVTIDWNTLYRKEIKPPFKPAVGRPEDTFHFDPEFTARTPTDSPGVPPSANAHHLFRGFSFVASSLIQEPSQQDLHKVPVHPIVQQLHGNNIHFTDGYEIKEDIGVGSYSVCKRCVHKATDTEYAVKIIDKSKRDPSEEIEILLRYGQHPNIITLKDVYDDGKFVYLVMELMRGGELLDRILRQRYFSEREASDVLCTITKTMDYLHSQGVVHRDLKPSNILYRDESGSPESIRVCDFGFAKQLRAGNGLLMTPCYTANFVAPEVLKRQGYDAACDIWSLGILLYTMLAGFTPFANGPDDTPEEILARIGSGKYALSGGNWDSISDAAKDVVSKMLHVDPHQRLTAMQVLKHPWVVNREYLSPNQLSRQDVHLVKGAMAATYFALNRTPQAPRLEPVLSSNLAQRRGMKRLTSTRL", "test": "Inhibition of wild-type human partial length C-terminal RSK3 kinase domain 2 (V403 to K700 residues) expressed in bacterial expression system at 1 uM by Kinomescan method relative to control"}, "[8]": {"target": "Discoidin domain-containing receptor 2 (Homo sapiens) (UniProt Q16832)", "test": "Inhibition of wild-type human partial length DDR2 (V555 to E855 residues) expressed in mammalian expression system at 1 uM by Kinomescan method relative to control"}, "[9]": {"target": "Cyclin-dependent kinase 9 (Homo sapiens) (UniProt P50750)", "test": "Inhibition of wild-type human full length CDK9 (M1 to F372 residues) expressed in bacterial expression system at 1 uM by Kinomescan method relative to control"}, "[10]": {"test_system": "Tyrosine-protein kinase ABL1 (Homo sapiens), P00519 [F317I]", "test": "Inhibition of human phosphorylated ABL1 F317I mutant (S229 to K512 residues) expressed in mammalian expression system at 1 uM by Kinomescan method relative to control"}, "[11]": {"target": "Mitogen-activated protein kinase 1 (Homo sapiens) (UniProt P28482)", "sequence (P28482 whole entry, the tested form may be a part)": "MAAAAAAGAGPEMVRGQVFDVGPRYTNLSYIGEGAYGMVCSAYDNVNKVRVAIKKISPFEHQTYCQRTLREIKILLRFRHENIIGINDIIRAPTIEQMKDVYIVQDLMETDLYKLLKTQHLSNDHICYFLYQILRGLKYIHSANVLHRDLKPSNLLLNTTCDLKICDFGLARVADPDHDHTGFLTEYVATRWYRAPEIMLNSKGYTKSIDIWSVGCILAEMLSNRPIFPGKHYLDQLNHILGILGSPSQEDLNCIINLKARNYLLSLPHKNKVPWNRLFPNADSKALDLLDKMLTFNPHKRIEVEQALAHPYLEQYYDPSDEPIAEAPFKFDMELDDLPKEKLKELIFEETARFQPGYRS", "test": "Inhibition of wild-type human full length ERK2 (M1 to S360 residues) expressed in bacterial expression system at 1 uM by Kinomescan method relative to control"}, "[12]": {"target": "cAMP-dependent protein kinase catalytic subunit PRKX (Homo sapiens) (UniProt P51817)", "test": "Inhibition of wild-type human partial length PRKX (M1 to F358 residues) expressed in bacterial expression system at 1 uM by Kinomescan method relative to control"}, "[13]": {"target": "Cyclin-dependent kinase 7 (Homo sapiens) (UniProt P50613)", "test": "Inhibition of wild-type human full length CDK7 (M1 to L344 residues) expressed in mammalian expression system at 1 uM by Kinomescan method relative to control"}, "[14]": {"target": "Mitogen-activated protein kinase 9 (Homo sapiens) (UniProt P45984)", "test": "Inhibition of wild-type human full length JNK2 (M1 to Q382 residues) expressed in mammalian expression system at 1 uM by Kinomescan method relative to control"}, "[15]": {"target": "Myosin light chain kinase 2, skeletal/cardiac muscle (Homo sapiens) (UniProt Q9H1R3)", "test": "Inhibition of wild-type human partial length MYLK2 (D258 to K570 residues) expressed in bacterial expression system at 10 uM by Kinomescan method relative to control"}, "[16]": {"target": "Ephrin type-A receptor 4 (Homo sapiens) (UniProt P54764)", "sequence (P54764 whole entry, the tested form may be a part)": "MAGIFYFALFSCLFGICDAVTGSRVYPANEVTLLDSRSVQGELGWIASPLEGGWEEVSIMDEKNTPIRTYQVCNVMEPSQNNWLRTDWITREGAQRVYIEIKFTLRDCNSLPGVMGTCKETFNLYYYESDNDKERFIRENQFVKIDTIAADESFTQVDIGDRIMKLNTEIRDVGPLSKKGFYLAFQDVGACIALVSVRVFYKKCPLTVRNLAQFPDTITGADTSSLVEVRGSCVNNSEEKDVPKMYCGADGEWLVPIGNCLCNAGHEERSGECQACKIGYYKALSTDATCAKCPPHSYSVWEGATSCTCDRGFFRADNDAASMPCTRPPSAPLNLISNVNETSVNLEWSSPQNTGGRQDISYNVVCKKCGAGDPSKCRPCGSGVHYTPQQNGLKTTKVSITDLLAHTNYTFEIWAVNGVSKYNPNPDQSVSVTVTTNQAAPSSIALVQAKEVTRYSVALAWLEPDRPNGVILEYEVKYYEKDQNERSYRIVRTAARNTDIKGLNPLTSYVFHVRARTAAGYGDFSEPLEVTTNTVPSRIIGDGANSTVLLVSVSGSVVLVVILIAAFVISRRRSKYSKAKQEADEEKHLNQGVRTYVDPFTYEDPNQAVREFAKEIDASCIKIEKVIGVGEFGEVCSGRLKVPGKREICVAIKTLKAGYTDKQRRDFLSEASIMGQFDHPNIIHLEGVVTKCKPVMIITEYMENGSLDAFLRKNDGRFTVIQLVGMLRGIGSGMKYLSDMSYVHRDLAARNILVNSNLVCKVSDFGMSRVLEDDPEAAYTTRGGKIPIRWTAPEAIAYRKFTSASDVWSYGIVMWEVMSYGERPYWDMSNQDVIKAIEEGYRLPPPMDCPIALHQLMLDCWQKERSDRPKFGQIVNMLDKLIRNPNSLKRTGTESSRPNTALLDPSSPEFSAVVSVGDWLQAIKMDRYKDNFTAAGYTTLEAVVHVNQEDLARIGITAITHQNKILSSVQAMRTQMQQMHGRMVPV", "test": "Inhibition of wild-type human partial length EPHA4 (T601 to R897 residues) expressed in bacterial expression system at 10 uM by Kinomescan method relative to control"}, "[17]": {"target": "Dual serine/threonine and tyrosine protein kinase (Homo sapiens) (UniProt Q6XUX3)", "test": "Inhibition of wild-type human full length RIPK5 (M1 to T929 residues) expressed in mammalian expression system at 10 uM by Kinomescan method relative to control"}, "[18]": {"target": "Insulin receptor (Homo sapiens) (UniProt P06213)", "test": "Inhibition of wild-type human partial length INSR (P997 to E1318 residues) expressed in mammalian expression system at 10 uM by Kinomescan method relative to control"}, "[19]": {"target": "Dual specificity mitogen-activated protein kinase kinase 4 (Homo sapiens) (UniProt P45985)", "test": "Inhibition of wild-type human partial length MEK4 (S84 to D399 residues) expressed in mammalian expression system at 10 uM by Kinomescan method relative to control"}, "[20]": {"target": "Protein kinase C delta type (Homo sapiens) (UniProt Q05655)", "sequence (Q05655 whole entry, looked up, the tested form may be a part)": "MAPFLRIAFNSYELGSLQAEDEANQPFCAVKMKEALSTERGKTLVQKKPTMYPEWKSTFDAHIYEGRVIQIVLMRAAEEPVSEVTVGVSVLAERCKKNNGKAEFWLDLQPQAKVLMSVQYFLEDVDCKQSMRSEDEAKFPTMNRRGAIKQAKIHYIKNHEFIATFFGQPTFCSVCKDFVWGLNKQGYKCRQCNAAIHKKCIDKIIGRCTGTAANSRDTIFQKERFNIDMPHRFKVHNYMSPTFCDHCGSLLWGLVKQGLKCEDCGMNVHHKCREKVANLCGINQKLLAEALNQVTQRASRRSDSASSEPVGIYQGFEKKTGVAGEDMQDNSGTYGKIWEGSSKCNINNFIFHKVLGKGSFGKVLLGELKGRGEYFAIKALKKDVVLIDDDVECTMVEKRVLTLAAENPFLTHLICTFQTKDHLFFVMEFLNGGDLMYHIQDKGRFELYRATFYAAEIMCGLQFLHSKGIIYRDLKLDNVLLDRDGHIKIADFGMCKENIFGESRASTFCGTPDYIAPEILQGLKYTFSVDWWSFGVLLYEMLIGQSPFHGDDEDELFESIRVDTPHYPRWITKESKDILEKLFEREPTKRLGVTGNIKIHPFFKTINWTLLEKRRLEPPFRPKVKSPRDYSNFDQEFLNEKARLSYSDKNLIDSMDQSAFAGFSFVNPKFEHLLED", "test": "Inhibition of wild-type human partial length PRKCD (Q328 to D676 residues) expressed in bacterial expression system at 10 uM by Kinomescan method relative to control"}, "[21]": {"target": "Dual specificity protein kinase TTK (Homo sapiens) (UniProt P33981)", "test": "Inhibition of wild-type human partial length TTK (N505 to V798 residues) expressed in bacterial expression system at 10 uM by Kinomescan method relative to control"}, "[22]": {"test_system": "Mast/stem cell growth factor receptor Kit (Homo sapiens), P10721 [D816H]", "test": "Inhibition of human partial length KIT D816H mutant (I571 to D952 residues) expressed in mammalian expression system at 10 uM by Kinomescan method relative to control"}, "[23]": {"target": "Bone morphogenetic protein receptor type-2 (Homo sapiens) (UniProt Q13873)", "sequence (Q13873 whole entry, the tested form may be a part)": "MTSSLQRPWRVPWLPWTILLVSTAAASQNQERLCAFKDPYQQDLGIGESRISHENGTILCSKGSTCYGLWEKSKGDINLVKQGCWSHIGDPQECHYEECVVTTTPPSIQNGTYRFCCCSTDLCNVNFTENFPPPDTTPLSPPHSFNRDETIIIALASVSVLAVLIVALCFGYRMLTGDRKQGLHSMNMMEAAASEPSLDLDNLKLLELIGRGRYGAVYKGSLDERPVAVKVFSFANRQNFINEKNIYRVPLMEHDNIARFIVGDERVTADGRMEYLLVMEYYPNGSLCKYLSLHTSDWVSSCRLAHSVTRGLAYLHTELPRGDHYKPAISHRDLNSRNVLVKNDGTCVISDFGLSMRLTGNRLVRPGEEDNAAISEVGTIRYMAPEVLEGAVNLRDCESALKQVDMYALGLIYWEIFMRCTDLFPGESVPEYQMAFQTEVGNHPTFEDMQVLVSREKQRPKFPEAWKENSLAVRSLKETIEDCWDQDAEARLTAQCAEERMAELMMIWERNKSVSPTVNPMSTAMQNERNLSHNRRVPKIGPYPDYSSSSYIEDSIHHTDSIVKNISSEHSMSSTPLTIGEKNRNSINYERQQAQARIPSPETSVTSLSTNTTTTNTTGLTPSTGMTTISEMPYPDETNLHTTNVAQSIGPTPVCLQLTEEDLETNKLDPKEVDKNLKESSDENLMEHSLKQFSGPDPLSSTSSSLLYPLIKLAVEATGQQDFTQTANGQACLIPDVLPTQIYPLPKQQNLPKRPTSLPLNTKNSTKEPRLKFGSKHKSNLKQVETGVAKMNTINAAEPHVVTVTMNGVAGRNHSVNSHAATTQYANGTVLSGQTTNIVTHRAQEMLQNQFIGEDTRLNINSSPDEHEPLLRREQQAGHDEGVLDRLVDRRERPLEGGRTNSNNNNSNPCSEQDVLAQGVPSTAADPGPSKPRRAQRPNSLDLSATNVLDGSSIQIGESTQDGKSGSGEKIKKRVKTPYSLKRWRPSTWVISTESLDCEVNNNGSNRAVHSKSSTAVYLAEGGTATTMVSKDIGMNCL", "test": "Inhibition of wild-type human partial length BMPR2 (R179 to Q526 residues) expressed in mammalian expression system at 10 uM by Kinomescan method relative to control"}, "[24]": {"target": "Mast/stem cell growth factor receptor Kit (Homo sapiens) (UniProt P10721)", "test": "Inhibition of wild-type human partial length KIT (I571 to D952 residues) expressed in bacterial expression system at 10 uM by Kinomescan method relative to control"}, "[25]": {"target": "Serine/threonine-protein kinase MARK2 (Homo sapiens) (UniProt Q7KZI7)", "test": "Inhibition of wild-type human partial length MARK2 (M1 to R450 residues) expressed in bacterial expression system at 10 uM by Kinomescan method relative to control"}, "[26]": {"target": "Fibroblast growth factor receptor 4 (Homo sapiens) (UniProt P22455)", "test": "Inhibition of wild-type human partial length FGFR4 (G402 to E713 residues) expressed in bacterial expression system at 10 uM by Kinomescan method relative to control"}, "[27]": {"target": "Tyrosine-protein kinase Fgr (Homo sapiens) (UniProt P09769)", "test": "Inhibition of wild-type human partial length FGR (L233 to T529 residues) expressed in bacterial expression system at 10 uM by Kinomescan method relative to control"}},
  "data": [
    {"smiles": "O=C(Nc1cccc([C@@H]2CN(c3ncnc4[nH]ccc34)CCN2CCO)c1)Nc1c(F)cccc1N1CCCC1", "values": [
      {"measurement": "inhibition", "setting": "[1]", "value": 100, "unit": "%"},
      {"measurement": "inhibition", "setting": "[2]", "value": 64, "unit": "%"},
      {"measurement": "inhibition", "setting": "[3]", "value": 100, "unit": "%"},
      {"measurement": "inhibition", "setting": "[4]", "value": 4.4, "unit": "%"},
      {"measurement": "inhibition", "setting": "[5]", "value": 93, "unit": "%"},
      {"measurement": "inhibition", "setting": "[6]", "value": 52, "unit": "%"},
      {"measurement": "inhibition", "setting": "[7]", "value": 97, "unit": "%"},
      {"measurement": "inhibition", "setting": "[8]", "value": 73, "unit": "%"},
      {"measurement": "inhibition", "setting": "[9]", "value": 100, "unit": "%"},
      {"measurement": "inhibition", "setting": "[10]", "value": 100, "unit": "%"},
      {"measurement": "inhibition", "setting": "[11]", "value": 90, "unit": "%"},
      {"measurement": "inhibition", "setting": "[12]", "value": 95, "unit": "%"},
      {"measurement": "inhibition", "setting": "[13]", "value": 100, "unit": "%"},
      {"measurement": "inhibition", "setting": "[14]", "value": 100, "unit": "%"}
    ]},
    {"smiles": "O=C(Nc1cccc([C@H]2CCCN(c3ncnc4[nH]ccc34)C2)c1)Nc1ccccc1N1CCCC1", "values": [
      {"measurement": "inhibition", "setting": "[15]", "value": 58, "unit": "%"},
      {"measurement": "inhibition", "setting": "[16]", "value": 98, "unit": "%"},
      {"measurement": "inhibition", "setting": "[17]", "value": 49, "unit": "%"},
      {"measurement": "inhibition", "setting": "[18]", "value": 81, "unit": "%"},
      {"measurement": "inhibition", "setting": "[19]", "value": 1.6, "unit": "%"},
      {"measurement": "inhibition", "setting": "[20]", "value": 100, "unit": "%"},
      {"measurement": "inhibition", "setting": "[21]", "value": 78, "unit": "%"},
      {"measurement": "inhibition", "setting": "[22]", "value": 4.2, "unit": "%"},
      {"measurement": "inhibition", "setting": "[23]", "value": 51, "unit": "%"},
      {"measurement": "inhibition", "setting": "[24]", "value": 0.25, "unit": "%"},
      {"measurement": "inhibition", "setting": "[25]", "value": 41, "unit": "%"},
      {"measurement": "inhibition", "setting": "[26]", "value": 96, "unit": "%"},
      {"measurement": "inhibition", "setting": "[27]", "value": 62, "unit": "%"}
    ]}
  ]
}
